From ChEMBL document CHEMBL4507305, “Data for DCP probe TP-024” (2021)

How the values were obtained:
[1] = molecular target: Serine/threonine-protein kinase 4 (Homo sapiens) (UniProt Q13043); conditions: Compound concentration 1000.0 nM
[2] = tested on: Mast/stem cell growth factor receptor Kit (Homo sapiens), P10721 [A829P]; conditions: Compound concentration 1000.0 nM
[3] = molecular target: Cyclin-dependent kinase-like 2 (Homo sapiens) (UniProt Q92772); conditions: Compound concentration 1000.0 nM
[4] = molecular target: Casein kinase I isoform alpha (Homo sapiens) (UniProt P48729); conditions: Compound concentration 1000.0 nM
[5] = molecular target: Mitogen-activated protein kinase kinase kinase 7 (Homo sapiens) (UniProt O43318); conditions: Compound concentration 1000.0 nM
[6] = molecular target: Serine/threonine-protein kinase PLK2 (Homo sapiens) (UniProt Q9NYY3); conditions: Compound concentration 1000.0 nM
[7] = molecular target: Mitogen-activated protein kinase kinase kinase kinase 3 (Homo sapiens) (UniProt Q8IVH8); conditions: Compound concentration 1000.0 nM
[8] = molecular target: Cyclin-dependent kinase 4 (Homo sapiens) (UniProt P11802); conditions: Compound concentration 1000.0 nM
[9] = molecular target: Serine/threonine-protein kinase PRP4 homolog (Homo sapiens) (UniProt Q13523); conditions: Compound concentration 1000.0 nM
[10] = molecular target: Mitogen-activated protein kinase kinase kinase 15 (Homo sapiens) (UniProt Q6ZN16); conditions: Compound concentration 1000.0 nM
[11] = molecular target: Cyclin-dependent kinase 7 (Homo sapiens) (UniProt P50613); conditions: Compound concentration 1000.0 nM
[12] = molecular target: cGMP-dependent protein kinase 2 (Homo sapiens) (UniProt Q13237); conditions: Compound concentration 1000.0 nM
[13] = tested on: Tyrosine-protein kinase ABL1 (Homo sapiens), P00519 [T315I]; conditions: Compound concentration 1000.0 nM
[14] = molecular target: 5-hydroxytryptamine receptor 1E (Homo sapiens) (UniProt P28566); conditions: Compound concentration 10.0 uM
[15] = molecular target: Serine/threonine-protein kinase RIO2 (Homo sapiens) (UniProt Q9BVS4); conditions: Compound concentration 1000.0 nM
[16] = molecular target: Bone morphogenetic protein receptor type-1B (Homo sapiens) (UniProt O00238); conditions: Compound concentration 1000.0 nM
[17] = molecular target: Serine/threonine-protein kinase 33 (Homo sapiens) (UniProt Q9BYT3); conditions: Compound concentration 1000.0 nM
[18] = molecular target: Mitogen-activated protein kinase 15 (Homo sapiens) (UniProt Q8TD08); conditions: Compound concentration 1000.0 nM
[19] = molecular target: MAP/microtubule affinity-regulating kinase 3 (Homo sapiens) (UniProt P27448); conditions: Compound concentration 1000.0 nM
[20] = molecular target: Ephrin type-A receptor 3 (Homo sapiens) (UniProt P29320); conditions: Compound concentration 1000.0 nM
[21] = molecular target: Misshapen-like kinase 1 (Homo sapiens) (UniProt Q8N4C8); conditions: Compound concentration 1000.0 nM
[22] = tested on: Tyrosine-protein kinase ABL1 (Homo sapiens), P00519 [T315I]; conditions: Compound concentration 1000.0 nM; remark: listed apart in the source
[23] = molecular target: Tyrosine-protein kinase Lck (Homo sapiens) (UniProt P06239); conditions: Compound concentration 1000.0 nM
[24] = tested on: Receptor-type tyrosine-protein kinase FLT3 (Homo sapiens), P36888 [D835Y]; conditions: Compound concentration 1000.0 nM
[25] = molecular target: Serine/threonine-protein kinase TAO2 (Homo sapiens) (UniProt Q9UL54); conditions: Compound concentration 1000.0 nM
[26] = tested on: Tyrosine-protein kinase ABL1 (Homo sapiens), P00519 [Q252H]; conditions: Compound concentration 1000.0 nM
[27] = molecular target: D(4) dopamine receptor (Homo sapiens) (UniProt P21917); conditions: Compound concentration 10.0 uM
[28] = molecular target: Tyrosine-protein kinase ITK/TSK (Homo sapiens) (UniProt Q08881); conditions: Compound concentration 1000.0 nM
[29] = tested on: Receptor-type tyrosine-protein kinase FLT3 (Homo sapiens), P36888 [UNDEFINED MUTATION]; conditions: Compound concentration 1000.0 nM
[30] = molecular target: Serine/threonine-protein kinase NLK (Homo sapiens) (UniProt Q9UBE8); conditions: Compound concentration 1000.0 nM
[31] = molecular target: Mitogen-activated protein kinase 13 (Homo sapiens) (UniProt O15264); conditions: Compound concentration 1000.0 nM
[32] = molecular target: Proto-oncogene tyrosine-protein kinase ROS (Homo sapiens) (UniProt P08922); conditions: Compound concentration 1000.0 nM
[33] = molecular target: Calcium/calmodulin-dependent protein kinase type IV (Homo sapiens) (UniProt Q16566); conditions: Compound concentration 1000.0 nM
[34] = molecular target: Ephrin type-B receptor 4 (Homo sapiens) (UniProt P54760); conditions: Compound concentration 1000.0 nM
[35] = molecular target: LIM domain kinase 2 (Homo sapiens) (UniProt P53671); conditions: Compound concentration 1000.0 nM
[36] = molecular target: Protein-tyrosine kinase 2-beta (Homo sapiens) (UniProt Q14289); conditions: Compound concentration 1000.0 nM
[37] = molecular target: Calcium/calmodulin-dependent protein kinase type II subunit delta (Homo sapiens) (UniProt Q13557); conditions: Compound concentration 1000.0 nM
[38] = molecular target: Tyrosine-protein kinase Blk (Homo sapiens) (UniProt P51451); conditions: Compound concentration 1000.0 nM
[39] = molecular target: 5-hydroxytryptamine receptor 7 (Homo sapiens) (UniProt P34969); conditions: Compound concentration 10.0 uM
[40] = molecular target: Serine/threonine-protein kinase MRCK beta (Homo sapiens) (UniProt Q9Y5S2); conditions: Compound concentration 1000.0 nM
[41] = molecular target: Ribosomal protein S6 kinase alpha-1 (Homo sapiens) (UniProt Q15418); conditions: Compound concentration 1000.0 nM
[42] = molecular target: Microtubule-associated serine/threonine-protein kinase 1 (Homo sapiens) (UniProt Q9Y2H9); conditions: Compound concentration 1000.0 nM
[43] = molecular target: TRAF2 and NCK-interacting protein kinase (Homo sapiens) (UniProt Q9UKE5); conditions: Compound concentration 1000.0 nM
[44] = molecular target: Non-receptor tyrosine-protein kinase TYK2 (Homo sapiens) (UniProt P29597); conditions: Compound concentration 1000.0 nM
[45] = molecular target: Tyrosine-protein kinase Yes (Homo sapiens) (UniProt P07947); conditions: Compound concentration 1000.0 nM

Sequence of Mitogen-activated protein kinase 15 (Homo sapiens) (Q8TD08 whole entry): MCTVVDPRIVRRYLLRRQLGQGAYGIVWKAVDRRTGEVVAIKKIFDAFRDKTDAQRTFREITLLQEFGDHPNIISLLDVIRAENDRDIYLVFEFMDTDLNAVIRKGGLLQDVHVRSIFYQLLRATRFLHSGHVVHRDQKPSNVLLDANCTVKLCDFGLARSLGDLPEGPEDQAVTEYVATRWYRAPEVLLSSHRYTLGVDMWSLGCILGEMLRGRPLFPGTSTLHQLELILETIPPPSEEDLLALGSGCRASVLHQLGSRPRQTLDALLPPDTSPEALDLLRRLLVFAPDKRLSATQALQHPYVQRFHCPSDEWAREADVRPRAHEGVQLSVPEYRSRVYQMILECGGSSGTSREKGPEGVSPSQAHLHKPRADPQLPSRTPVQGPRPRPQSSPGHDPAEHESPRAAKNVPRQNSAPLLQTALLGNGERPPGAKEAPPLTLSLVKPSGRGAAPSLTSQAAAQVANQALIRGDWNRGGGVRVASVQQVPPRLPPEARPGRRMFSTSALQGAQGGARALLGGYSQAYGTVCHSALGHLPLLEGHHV
Sequence of Tyrosine-protein kinase Blk (Homo sapiens) (P51451 2-505 limits assumed): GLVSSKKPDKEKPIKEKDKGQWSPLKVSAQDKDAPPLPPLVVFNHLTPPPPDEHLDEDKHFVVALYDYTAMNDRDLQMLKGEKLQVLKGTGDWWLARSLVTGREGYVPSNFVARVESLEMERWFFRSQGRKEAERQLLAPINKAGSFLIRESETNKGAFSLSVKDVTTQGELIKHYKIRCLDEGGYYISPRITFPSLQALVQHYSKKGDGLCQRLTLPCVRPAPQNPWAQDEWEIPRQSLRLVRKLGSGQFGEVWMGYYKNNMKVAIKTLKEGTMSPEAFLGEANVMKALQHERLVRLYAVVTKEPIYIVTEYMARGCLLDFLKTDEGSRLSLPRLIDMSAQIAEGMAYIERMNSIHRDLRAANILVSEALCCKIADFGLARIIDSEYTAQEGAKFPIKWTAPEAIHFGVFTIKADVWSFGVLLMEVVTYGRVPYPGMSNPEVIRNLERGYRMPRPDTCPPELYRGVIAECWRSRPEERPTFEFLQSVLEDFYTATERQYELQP
Sequence of Calcium/calmodulin-dependent protein kinase type II subunit delta (Homo sapiens) (Q13557 whole entry): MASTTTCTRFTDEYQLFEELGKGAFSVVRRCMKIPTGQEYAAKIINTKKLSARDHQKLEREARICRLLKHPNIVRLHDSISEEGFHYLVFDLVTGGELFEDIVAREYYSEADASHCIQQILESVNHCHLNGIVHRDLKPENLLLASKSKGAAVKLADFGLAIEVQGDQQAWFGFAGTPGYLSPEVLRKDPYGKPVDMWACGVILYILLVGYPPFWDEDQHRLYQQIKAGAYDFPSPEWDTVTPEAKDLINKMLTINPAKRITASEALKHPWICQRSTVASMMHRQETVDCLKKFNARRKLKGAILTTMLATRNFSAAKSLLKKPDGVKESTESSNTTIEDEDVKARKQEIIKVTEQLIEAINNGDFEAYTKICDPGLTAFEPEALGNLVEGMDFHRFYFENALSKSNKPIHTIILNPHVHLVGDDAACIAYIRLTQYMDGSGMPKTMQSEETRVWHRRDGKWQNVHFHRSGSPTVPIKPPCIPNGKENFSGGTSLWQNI
Sequence of Cyclin-dependent kinase-like 2 (Homo sapiens) (Q92772 whole entry, canonical isoform): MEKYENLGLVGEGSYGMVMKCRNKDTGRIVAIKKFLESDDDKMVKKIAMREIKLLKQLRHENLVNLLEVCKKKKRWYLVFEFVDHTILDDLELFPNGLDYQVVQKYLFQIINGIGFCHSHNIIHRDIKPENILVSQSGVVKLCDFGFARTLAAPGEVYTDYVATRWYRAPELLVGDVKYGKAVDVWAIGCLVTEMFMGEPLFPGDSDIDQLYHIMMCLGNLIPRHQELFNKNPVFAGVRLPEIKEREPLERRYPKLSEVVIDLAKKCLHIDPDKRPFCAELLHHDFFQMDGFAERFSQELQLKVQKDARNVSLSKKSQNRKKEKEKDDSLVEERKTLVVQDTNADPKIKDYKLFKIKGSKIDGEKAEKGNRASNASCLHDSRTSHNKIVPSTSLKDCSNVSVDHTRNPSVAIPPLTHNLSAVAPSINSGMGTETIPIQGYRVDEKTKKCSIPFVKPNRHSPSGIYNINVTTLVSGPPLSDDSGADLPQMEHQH
Sequence of Ephrin type-B receptor 4 (Homo sapiens) (P54760 whole entry, the tested form may be a part): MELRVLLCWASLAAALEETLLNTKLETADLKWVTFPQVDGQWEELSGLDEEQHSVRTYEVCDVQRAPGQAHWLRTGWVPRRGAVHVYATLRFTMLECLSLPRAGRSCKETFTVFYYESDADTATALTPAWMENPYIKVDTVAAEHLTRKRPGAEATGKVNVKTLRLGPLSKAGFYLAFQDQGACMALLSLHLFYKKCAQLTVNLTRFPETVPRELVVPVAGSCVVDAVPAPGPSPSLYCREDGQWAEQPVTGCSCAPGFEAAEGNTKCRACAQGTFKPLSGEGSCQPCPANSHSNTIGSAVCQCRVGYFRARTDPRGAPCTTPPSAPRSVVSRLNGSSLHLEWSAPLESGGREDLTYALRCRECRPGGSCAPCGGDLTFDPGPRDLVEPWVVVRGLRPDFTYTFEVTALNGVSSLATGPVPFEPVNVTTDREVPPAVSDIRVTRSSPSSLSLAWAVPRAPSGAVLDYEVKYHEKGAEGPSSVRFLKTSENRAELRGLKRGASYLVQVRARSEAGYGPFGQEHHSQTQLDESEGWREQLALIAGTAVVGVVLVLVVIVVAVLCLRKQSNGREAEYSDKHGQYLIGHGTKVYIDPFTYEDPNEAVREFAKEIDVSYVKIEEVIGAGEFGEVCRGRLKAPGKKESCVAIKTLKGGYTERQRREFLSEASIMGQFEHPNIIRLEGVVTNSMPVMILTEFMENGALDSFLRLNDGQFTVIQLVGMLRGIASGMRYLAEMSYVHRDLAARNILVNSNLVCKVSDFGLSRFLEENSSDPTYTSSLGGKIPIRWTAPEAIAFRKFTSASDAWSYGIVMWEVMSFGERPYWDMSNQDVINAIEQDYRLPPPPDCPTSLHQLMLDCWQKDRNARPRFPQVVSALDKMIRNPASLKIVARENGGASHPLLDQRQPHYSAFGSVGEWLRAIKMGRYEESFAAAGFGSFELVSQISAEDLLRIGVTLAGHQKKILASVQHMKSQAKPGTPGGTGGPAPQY
Sequence of Serine/threonine-protein kinase 33 (Homo sapiens) (Q9BYT3 whole entry, looked up): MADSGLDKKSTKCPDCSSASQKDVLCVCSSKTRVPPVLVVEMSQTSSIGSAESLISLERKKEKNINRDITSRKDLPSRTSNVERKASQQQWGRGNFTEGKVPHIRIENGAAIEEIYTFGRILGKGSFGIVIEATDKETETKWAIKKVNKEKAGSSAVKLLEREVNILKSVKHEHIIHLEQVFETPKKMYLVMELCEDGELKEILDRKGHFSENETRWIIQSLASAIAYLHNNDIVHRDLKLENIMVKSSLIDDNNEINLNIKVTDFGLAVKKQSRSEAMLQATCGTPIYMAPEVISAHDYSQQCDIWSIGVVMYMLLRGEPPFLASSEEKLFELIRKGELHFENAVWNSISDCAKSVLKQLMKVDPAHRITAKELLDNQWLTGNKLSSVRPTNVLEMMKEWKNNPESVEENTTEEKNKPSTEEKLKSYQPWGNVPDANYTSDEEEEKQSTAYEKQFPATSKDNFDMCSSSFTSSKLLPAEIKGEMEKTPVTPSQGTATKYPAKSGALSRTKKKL
Sequence of Mitogen-activated protein kinase kinase kinase kinase 3 (Homo sapiens) (Q8IVH8 whole entry): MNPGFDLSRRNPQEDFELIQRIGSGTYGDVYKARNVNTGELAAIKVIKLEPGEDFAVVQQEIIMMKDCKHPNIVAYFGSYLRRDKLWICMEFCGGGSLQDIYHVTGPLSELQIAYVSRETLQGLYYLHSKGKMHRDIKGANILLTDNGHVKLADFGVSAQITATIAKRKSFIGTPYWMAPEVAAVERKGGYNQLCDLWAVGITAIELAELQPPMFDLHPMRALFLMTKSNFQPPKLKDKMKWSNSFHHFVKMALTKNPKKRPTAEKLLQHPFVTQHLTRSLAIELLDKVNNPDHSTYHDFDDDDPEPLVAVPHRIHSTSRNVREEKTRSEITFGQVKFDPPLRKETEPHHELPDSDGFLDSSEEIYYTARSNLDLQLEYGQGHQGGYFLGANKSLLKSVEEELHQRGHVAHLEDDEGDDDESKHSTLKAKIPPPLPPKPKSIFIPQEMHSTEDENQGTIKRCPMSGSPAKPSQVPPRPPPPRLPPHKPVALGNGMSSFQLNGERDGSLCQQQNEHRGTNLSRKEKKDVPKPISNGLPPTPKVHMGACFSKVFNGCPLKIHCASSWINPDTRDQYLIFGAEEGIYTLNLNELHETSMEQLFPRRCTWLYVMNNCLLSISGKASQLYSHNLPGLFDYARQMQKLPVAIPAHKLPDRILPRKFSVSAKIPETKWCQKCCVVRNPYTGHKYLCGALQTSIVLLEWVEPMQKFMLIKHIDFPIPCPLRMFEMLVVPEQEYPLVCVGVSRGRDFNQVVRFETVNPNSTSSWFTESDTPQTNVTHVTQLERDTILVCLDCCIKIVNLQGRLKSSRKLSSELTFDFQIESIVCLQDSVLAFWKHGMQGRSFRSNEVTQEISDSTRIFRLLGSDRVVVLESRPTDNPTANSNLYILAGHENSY
Sequence of Cyclin-dependent kinase 7 (Homo sapiens) (P50613 whole entry): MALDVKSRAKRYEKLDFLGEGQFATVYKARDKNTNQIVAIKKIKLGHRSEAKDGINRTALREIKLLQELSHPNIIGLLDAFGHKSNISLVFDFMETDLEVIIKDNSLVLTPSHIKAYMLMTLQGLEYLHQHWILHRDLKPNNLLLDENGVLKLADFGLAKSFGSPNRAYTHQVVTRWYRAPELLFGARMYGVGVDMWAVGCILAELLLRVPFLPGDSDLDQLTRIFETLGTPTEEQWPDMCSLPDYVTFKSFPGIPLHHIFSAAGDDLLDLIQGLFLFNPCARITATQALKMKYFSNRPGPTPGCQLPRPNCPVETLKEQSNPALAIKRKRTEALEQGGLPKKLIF

Compound: Cc1cc(-n2nc(Cc3cc(F)cc(C(F)(F)F)c3)nc2C)ccc1C(N)=O [TP-024]
- residual activity [1]: 100%
- residual activity [2]: 100%
- residual activity [3]: 100%
- residual activity [4]: 100%
- residual activity [5]: 100%
- residual activity [6]: 100%
- residual activity [7]: 69%
- residual activity [8]: 100%
- residual activity [9]: 54%
- residual activity [10]: 100%
- residual activity [11]: 100%
- residual activity [12]: 86%
- residual activity [13]: 100%
- inhibition [14]: 10.5%
- residual activity [15]: 100%
- residual activity [16]: 100%
- residual activity [17]: 100%
- residual activity [18]: 95%
- residual activity [19]: 100%
- residual activity [20]: 94%
- residual activity [21]: 93%
- residual activity [22]: 98%
- residual activity [23]: 100%
- residual activity [24]: 100%
- residual activity [25]: 91%
- residual activity [26]: 94%
- inhibition [27]: -2.09%
- residual activity [28]: 93%
- residual activity [29]: 100%
- residual activity [30]: 100%
- residual activity [31]: 100%
- residual activity [32]: 87%
- residual activity [33]: 100%
- residual activity [34]: 100%
- residual activity [35]: 95%
- residual activity [36]: 100%
- residual activity [37]: 100%
- residual activity [38]: 100%
- inhibition [39]: 21.4%
- residual activity [40]: 100%
- residual activity [41]: 100%
- residual activity [42]: 100%
- residual activity [43]: 100%
- residual activity [44]: 100%
- residual activity [45]: 100%

Compound: Cc1nc(Cc2cccc(C(F)(F)F)c2)sc1-c1ccc(C(N)=O)nc1 [TP-024n]
- residual activity [1]: 100%
- residual activity [2]: 96%
- residual activity [3]: 92%
- residual activity [4]: 99%
- residual activity [5]: 93%
- residual activity [6]: 82%
- residual activity [7]: 76%
- residual activity [8]: 99%
- residual activity [9]: 70%
- residual activity [10]: 100%
- residual activity [11]: 90%
- residual activity [12]: 84%
- residual activity [13]: 100%
- inhibition [14]: 9.13%
- residual activity [15]: 98%
- residual activity [16]: 94%
- residual activity [17]: 91%
- residual activity [18]: 100%
- residual activity [19]: 86%
- residual activity [20]: 88%
- residual activity [21]: 92%
- residual activity [22]: 100%
- residual activity [23]: 100%
- residual activity [24]: 92%
- residual activity [25]: 86%
- residual activity [26]: 87%
- inhibition [27]: -2.16%
- residual activity [28]: 100%
- residual activity [29]: 100%
- residual activity [30]: 100%
- residual activity [31]: 99%
- residual activity [32]: 94%
- residual activity [33]: 100%
- residual activity [34]: 100%
- residual activity [35]: 98%
- residual activity [36]: 100%
- residual activity [37]: 100%
- residual activity [38]: 100%
- inhibition [39]: 16.4%
- residual activity [40]: 39%
- residual activity [41]: 100%
- residual activity [42]: 100%
- residual activity [43]: 100%
- residual activity [44]: 100%
- residual activity [45]: 100%
